Source: patent US20220401428A1, “Method for Treatment of Alzheimer's Disease” (University of Kentucky Research Foundation, priority 2019, published 2022)

Experiments:
[1] = reference 24; cited from earlier work
ADHIP rats [2] = test: Behavior testing of sEHi-treated ADHIP rats (composite z-score); assay type: in vivo, rat; conditions: late stage (>16 months old) and early stage (12 months old) cohorts, treated vs untreated
Procedure: (§1) Pharmacological treatment on animals To increase plasma eicosanoids levels, the animals were treated with TPPU (1-Trifluoromethoxyphenyl-3-(1-propionylpiperidin-4-yl) urea, N-[1-(1-Oxopropyl)-4-piperidinyl]-N′-[4-(trifluoromethoxy)phenyl]-urea), a soluble epoxide hydrolase inhibitor (sEHi) (HY-101294, MedChem Express). […] 12 months old (n=5; early-stage) and 16 months old (n=6; late stage) animals were subjected to treatment with sEHi. For treatment at early-stage, the drug was administered through drinking water (3 mg/L, daily) and intravenous injection (20 μg/kg, once a week) to ensure equal intake for each animal. […] Amount of water intake was measured daily.
Behavior testing Forelimb use test/Cylinder test, inclined plane, hind limb clasping test. […] Animal forelimb deficit was evaluated by forelimb-to-wall contact time in cylinder test. […] Abnormalities in the animal hind limbs were assessed by scoring the severity of hind limb clasping.
Rotarod assessment Motor coordination and balance were tested by the rotarod (Rotamex 5, Columbus Instrument, OH) test^27. […] The remaining read-outs were averaged, and a group average was calculated for each genotype. […]
Morris Water Maze Spatial learning and long-term memory retention were tested in a 1.5 m diameter Morris Water Maze, as previously described^15. […] Trials were recorded by EthoVision XT software (Noldus, VA). […]

ADHIP rats [3] = test: Histology and immunohistochemistry of brains of sEHi-treated ADHIP rats; assay type: in vivo, rat; conditions: treated vs untreated; for extent of axonal degeneration: MBP and LFB staining; for amylin deposition in brain capillaries: immunohistochemical analysis
Procedure: Pharmacological treatment on animals To increase plasma eicosanoids levels, the animals were treated with TPPU (1-Trifluoromethoxyphenyl-3-(1-propionylpiperidin-4-yl) urea, N-[1-(1-Oxopropyl)-4-piperidinyl]-N′-[4-(trifluoromethoxy)phenyl]-urea), a soluble epoxide hydrolase inhibitor (sEHi) (HY-101294, MedChem Express). […] 12 months old (n=5; early-stage) and 16 months old (n=6; late stage) animals were subjected to treatment with sEHi. For treatment at early-stage, the drug was administered through drinking water (3 mg/L, daily) and intravenous injection (20 μg/kg, once a week) to ensure equal intake for each animal. For treatment at late-stage, the drug was administered through and intravenous injection (20 μg/kg, daily, 1 month) and then through drinking water (3 mg/L, daily, 1 month). Amount of water intake was measured daily.
Histology and demyelination scoring Myelination in rat brains was analyzed by staining with Luxol fast blue (LFB) dye. Scoring analysis method was performed as described previously^15. Microhemorrhages in rat brains were stained with Prussian blue dye and analyzed as described previously^15. Congo red staining was performed on the human brains as previously^11 described.
Immunohistochemistry. Formalin fixed, paraffin embedded brain and pancreas tissues from humans, ADHIP, AD, WT, and AD-AKO rats were used. Tissues were processed as previously described^11,14,15,27. After tissue rehydration, the endogenous peroxidase was quenched in 3% H2O2 in methanol for 30 minutes. For amylin and Aβ antigen retrieval, sections were treated with 100% formic acid for 5 minutes, followed by 0.5% pepsin digestion in 5 mM HCl for 20 minutes at 37° C. To retrieve intra-neuronal amylin antigen (rat brains) as well as other antigens, tissue sections were heated in citrate buffer for 30 minutes. Non-specific antibody binding was blocked by 15% horse serum for 1 hour at room temperature (RT). Primary antibodies against amylin, human Aβ, Iba1, CD68 or myelin basic protein (MBP) was incubated on slides overnight at 4° C. Sections were then washed and incubated with secondary antibodies. Signal was developed with DAB or AEC peroxidase substrate. For co-staining with two antibodies, after the signal was developed for the first antibody, sections were then rinsed in water. Non-specific antibody binding was blocked with 10% normal goat serum, and the sections were incubated with the second primary antibody overnight at 4° C. Sections were then washed and incubated with AP-conjugated secondary antibody, and developed with StayGreen/AP chromogen substrate. Sections were mounted with aqueous mounting medium. The specificity of the amylin antibody in both human and rat brain tissues was established in previous studies^11,14,15,27.
Imaging analysis Wide-field images of stained tissue sections were generated by stitching images obtained from the 10× objective lens (Nikon NIS-Element Software). Higher magnification images for specific tissue area were obtained using the 40× objective lens. The immunoreactivity signal for each antibody was analyzed by ImageJ. Clearly defined-signal pixels were selected to establish the RGB profile of the color of interest. The threshold for each color signal was adjusted to reduce background noise. The established RGB profile and threshold were applied to a Macro script command, using Color Deconvolution plugin in ImageJ. The staining area was calculated using the following equation: […]

ADHIP rats [4] = test: Hypoxia markers in brain and brain capillary lysates of sEHi-treated ADHIP rats; assay type: in vivo, rat; conditions: treated vs untreated, HIF-1α, HIF-2α, Arg-1, Arg-2, arginase activity, mitochondrial DNA
Procedure: as §1, with “daily. […]” for “daily.”
Enzyme-linked immune absorbance assay (ELISA) Levels of amylin in human brain samples were measured using sandwich amylin ELISA from Millipore (EZHA-52K). Levels of amylin in human CSF and animal samples were measured using amylin sandwich ELISA from R&D system (EIA-AMY). Aβ levels in animal CSF were measured using high sensitivity electrochemiluminescence ELISA (MSD 6E10, K15200G-2, Meso Scale Discovery). […]
Arginase activity Arginase activity in rat brain capillaries were measured using arginase activity kit (MAK112, Sigma). […]
Mitochondria DNA extraction and analysis Protocol for quantifying mitochondrial DNA content was described in Ref 32. […] DNA purity was assessed by ensuring the A260/A280 ratio was >1.8. […]

LRP1 = LRP1 protein expression in rat brain microvascular ECs (Western blot, immunofluorescence); assay type: cell-based
Text: To study the role of miRNA signaling in amylin-induced suppression of endothelial LRP1 expression, transfection of rat brain microvascular ECs was used with miR-103-3p (MCR01039)[…](SEQ ID NO: 5), miR-107-3p (MCR01045)[…](SEQ ID NO: 6) and control (MCH00000) (https://www.abmgood.com/mirna-mimic-negative-control-mch00000.html). Antagomir miR-103-3p (IH-320345-05-0005)(SEQ ID NO: 5), miR-107-3p (IH-320348-05-0005)(SEQ ID NO: 6) and negative control (IN-001005-01-05) (https://www.biocompare.com/22445-RNA/4995709-miRIDIAN-microRNA-Hairpin-Inhibitor-Negative-Control-1-5-nmol/#productspecs) (Dharmacon Inc.) were used in an attempt to rescue LRP1 expression. All transfections were done using RNAiMAX (Invitrogen) as per manufacturer's recommended protocol. Briefly, ECs were plated at 50% confluency in 6-well plates followed by co-transfection with either 100 nM of 103-3p and 107-3p mimics or antagomirs along with their respective negative controls. After 12-hours, antagomir-treated cell groups were further treated with 10 uM human amylin for 24-hours. After 36-hours of transfection, cells were harvested for Western blot analysis.
In immunofluorescence experiments, formalin-fixed, paraffin-embedded human brain tissue was used and processed as previously described^16,18,39, brain capillaries from HIP and WT rats isolated as previously described^18. and cultured ECs. Anti-amylin (1:200; clone E5; SC-377530; Santa Cruz), anti-collagen IV (1:500; ab6586; abcam), anti-alpha smooth muscle actin-Alexa Fluor 405 (1:200; ab210128, abcam), anti-caveolin-1 (1:100; sc-894; Santa Cruz, Tex.), anti-LRP1 (1:500; sc-57351; Santa Cruz), anti-4HNE (1:200; ab46545; abcam) were the primary antibodies. Secondary antibodies were: Alexa Fluor 488 conjugated anti-mouse IgG (1:300; A11029; Invitrogen), Alexa Fluor 568 conjugated anti-rabbit IgG (1:200; A11036; Invitrogen), Alexa Fluor 568 conjugated anti-mouse IgG (1:300; A11004; Invitrogen). Nuclei were counterstained with DAPI mounting media. For triple staining of human brain tissues, smooth muscle actin-Alexa Fluor 405 antibody was added after staining with human amylin and collagen IV; DAPI free mounting media was used. For Thioflavin S staining, after secondary antibody incubation, brain slides were incubated in 0.5% Thioflavin S for 30 minutes at room temperature. Slides were then incubated for 3 minutes in 70% ethanol, 5 minutes in 0.2% Sudan black before washing and mounting. Immunocytochemistry was performed as described previously (39, 40).
Western blot analysis was performed on isolated brain capillaries, brain tissue homogenate and plasma from rats. Tissues were processed as described previously^16,18,28,39. RIPA buffer with 2% SDS was used to retrieve Aβ monomers from frozen brain samples^41. […]

[5] = listed as inhibitor of soluble epoxide hydrolase (sEH)

Compound: CCC(=O)N1CCC(NC(=O)Nc2ccc(OC(F)(F)F)cc2)CC1 [sEHi, 1-(1-propanoylpiperidin-4-yl)-3-[4-(trifluoromethoxy)phenyl]urea]
- level of circulating amylin [1]: lower the level of circulating amylin
- behavior deficits (ADHIP rats [2]): attenuation of functional decline
- behavior deficits (ADHIP rats [2]; [5]): reduced behavior deficits
- extent of axonal degeneration (ADHIP rats [3]): ameliorated
- extent of axonal degeneration (ADHIP rats [3]; [5]): reduced
- number of brain microhemorrhages (ADHIP rats [3]; Prussian blue): reduced
- amylin deposition in brain capillaries (ADHIP rats [3]): reduced capillary amylin deposition
- amylin deposition in brain capillaries (ADHIP rats [3]; [5]): reduced amylin deposition in brain capillaries
- brain accumulation of hypoxia markers (ADHIP rats [4]): lowered brain accumulation of hypoxia markers

Compound: miR-103 and miR-107 mimics: co-transfected miRNA mimics miR-103-3p (SEQ ID NO: 5) and miR-107-3p (SEQ ID NO: 6) (chain 1 AGCAGCAUUGUACAGGGCUAUGA; chain 2 AGCUUCUUUACAGUGUUGCCUUGU; listed as RNA, chemistry not given here)
- average LRP1 expression level (LRP1; ECs co-transfected with 100 nM mimics, 24 hours, vs miR-control, Western blot): lower

Compound: rat amylin
- LRP1 protein levels (LRP1; ECs, 10 μM, 24-hour incubation, confocal microscopy and Western blot): no effect
